# Experimental data taken from paper PMC6099493, “Discovery of Matrinic Thiadiazole Derivatives as a Novel Family of Anti-Liver Fibrosis Agents via Repression of the TGFβ/Smad Pathway” (Molecules : A Journal of Synthetic Chemistry and Natural …, 2018).
# Counter-ions that a name gives are not always drawn.
# Assays:
# [1] = MTT cytotoxicity / cell survival assay; assay type: cell-based; settings: human, HepG2 cells, read-out: CC50 (cytotoxic concentration required to inhibit HepG2 cell growth by 50%)
# Description: (§1) A single luciferase reporter gene detection model was applied to screen the inhibitory effects towards COL1A1 promotor of all target compounds in human hepatic stellate LX-2 cells at the concentration of 40 μM, taking EGCG and compound 1 as the positive controls. The LX2-COL monoclone cell line was treated simultaneously with TGFβ1 and a target compound [13]. The cytotoxicity was determined using MTT assay in HepG2 cells.
# (§2) The cell survival was evaluated by MTT assay. HepG2 cells were seeded at density of 6 × 10^3 cells/well in 96-well plate. Cells were treated with various concentrations of matrinic derivate until the cells at 50% confluence. After 24 h of incubation, 20 µL of the MTT (5 mg/mL) solution was added into each plate and incubated for 4 h at 37 °C, 5% CO2. Subsequently, the culture supernatant was replaced with 150 µL DMSO to dissolve the formazan crystal. The absorbance at 570 nm was measured using a microplate reader (ELx800, BioTek Instruments, Winooski, VT, USA).
# COL1A1 promotor = COL1A1 promotor single luciferase reporter gene model in LX-2 (LX2-COL) cells; assay type: cell-based, human; settings: Homo sapiens, LX-2 cells treated simultaneously with TGFβ1 and compound, read-out: Inhibition Percentage (inhibition rate of COL1A1 promotor's activity in LX2 cells)
# COL1A1 mRNA = COL1A1 mRNA level by real-time PCR in TGFβ1-stimulated LX-2 cells; assay type: cell-based, human; settings: 80 μM, TGFβ1 2 ng/mL
# Description: (§3) Next, compounds 6i, 6l and 6n were chosen as the key compounds to verify their inhibitory effects against COL1A1. LX-2 cells were stimulated with TGFβ1 (2 ng/mL), and then treated with compounds 6i, 6l and 6n (80 μM) respectively, taking 1 as the control. Their anti-COL1A1 effects were evaluated on RNA level by real-time PCR amplification. […] Then their anti-COL1A1 effects were investigated on the protein level by western blot assays.
# (§4) LX-2 cells were seeded in 6-well plate, cultured in DMEM, containing 10% fetal bovine serum (FBS) in a 5% CO2 atmosphere at 37 °C. And serum-free culture was required until the cells at 90–95% confluence. After 24 h, cells were treated with TGFβ1 (2 ng/mL) and matrinic derivatives (80 μM) for 24 h. Total RNA from the LX-2 cells was extracted using Trizol reagent, purified by NucleoSpin RNA Clean-up. Reverse transcription was performed with a Transcriptor first strand cDNA synthesis kit. The cDNA was then analysis by ABI 7500 Fast Real-Time PCR System (ThermoFisher Scientific, Singapore) using TaqMan probes of TGFβ1, COL1A1, α-SMA, and GAPDH (sequence reserved by ABI, Foster City, CA ,USA) and FastStart Universal Probe master mix (Roche, Indianapolis, IN, USA).
# COL1A1 protein = COL1A1 protein level by western blot in LX-2 cells; assay type: cell-based; settings: Homo sapiens, TGFβ1 2 ng/mL, read-out: COL1A1 protein level inhibition rate
# Description: as §3
# (§5) LX-2 cells were cultured as described above. Briefly, cells were washed with phosphate-buffered saline (PBS) and were lysed in radioimmunoprecipitation assay (RIPA) lysis for 30 min in 4 °C; the supernatant was collected after centrifugation at 12,000× g, 4 °C for 15 min. Equal amounts of protein were quantified with Bradford assay, separated by SDS-PAGE and transferred to polyvinylidene difluoride membrane. The membranes were blocked for one hour at room temperature in PBST containing 5% milk and probed with specific first antibodies overnight at room temperature. Membrane was washed 3 times by PBST, followed by horseradish peroxidase-conjugated secondary antibodies and GAPDH. The proteins were visualized using chemiluminescence reagents.
# α-SMA mRNA = α-SMA mRNA level by real-time PCR in TGFβ1-stimulated LX-2 cells; assay type: cell-based, human; settings: 80 μM, TGFβ1 2 ng/mL
# Description: (§6) α-SMA is a more commonly recognized indicator for liver fibrosis, and it could be induced by a stimulation of TGFβ1 [22], therefore, the amounts of α-SMA were also evaluated.
# as §4
# α-SMA protein = α-SMA protein level by western blot in LX-2 cells; assay type: cell-based; settings: Homo sapiens, TGFβ1 2 ng/mL, read-out: α-SMA protein level inhibition rate
# Description: as §6, §5
# [2] = system: Smad2 / phosphorylated Smad2 (TGFβ/Smad pathway); assay: Smad2 and p-Smad2 levels by western blot in LX-2 cells; assay type: cell-based, human
# Description: Considering the key role of TGFβ/Smad pathway in activating COL1A1, the effects of the three compounds on Smad and phosphorylated Smad were then evaluated.
# as §5
# HepG2 cells = assay: MTT cytotoxicity / cell survival assay; assay type: cell-based; settings: read-out: CC50 (cytotoxic concentration required to inhibit HepG2 cell growth by 50%)
# Description: as §1, §2
# Kunming mice = settings: female, mouse, in vivo, po, 7 days
# Description: To evaluate the safety profile of 6n, an acute toxicity test was performed in Kunming mice. Compound 6n was given orally in a single-dosing experiment at 125, 250 or 500 mg·kg^−1, respectively. The mice were closely monitored for 7 days. To our delight, it gave the median lethal dose (LD50) value over 500 mg·kg^−1, indicating a good safety profile in vivo.
# Female Kunming mice with weight of 20.0 (±1.0 g) were obtained from the Institute of Laboratory Animal Science (Beijing, China). Animals were cared according to the institutional guidelines of the Institute of Materia Medica, CAMS&PUMC (00000364). The mice were fed with regular rodent chow and housed in an air conditioned room. The mice were randomly divided into different groups with 6 mice each. Each compound was given orally in a single-dosing experiment at 0, 250, 500, 750 or 1000 mg·kg^−1 (ddH2O as control), respectively. The mice were closely monitored for 7 days. Body weight as well as survival was monitored.
melting point,Compound,CC50 at 24 h [1],inhibition at 40 µM (COL1A1 promotor),COL1A1 mRNA level inhibitory rate (COL1A1 mRNA),inhibition at 80 µM (COL1A1 protein),α-SMA mRNA level inhibitory rate (α-SMA mRNA),inhibition at 80 µM (α-SMA protein),Effect on Smad level [2],Effect on phosphorylation level of Smad2 (in words) [2],CC50 (HepG2 cells),median lethal dose (LD50) (Kunming mice),Inhibition rate of Smad2 phosphorylation level [2]
170 to 171 °C,"Nc1nnc(CCCC2C3CCCN4CCCC(CN2Cc2ccccc2)C34)s1 (stereo not shown) [Compound 6i, 12-N-Benzyl-3′-(5-amino-1,3,4-thiadiazol-2-yl)-matrinic propane]",> 320 µM,47.8%,46.1%,65%,75.1%,64.9%,did not affect the Smad level,repressed the phosphorylation level of Smad2 significantly,,,
,"Cc1ccc(S(=O)(=O)N2CC3CCCN4CCCC(C34)C2CCCc2nnc(Nc3ccccc3)s2)cc1 (stereo not shown) [Compound 6e, 12-N-p-Methylbenzenesulfonyl-3′-(N-phenyl-5-amino-1,3,4-thiadiazol-2-yl)-matrinic propane]",> 82.6 µM,69%,,,,,,,82.5 µM,,
167 to 168 °C,"Cc1ccc(CN2CC3CCCN4CCCC(C2CCCc2nnc(N)s2)C34)cc1 (stereo not shown) [Compound 6l, 12-N-p-Methylbenzyl-3′-(5-amino-1,3,4-thiadiazol-2-yl)-matrinic propane]",> 320 µM,38.7%,,99.3%,82.5%,93.8%,did not affect the Smad level,repressed the phosphorylation level of Smad2 significantly,,,
,"Cc1ccc(CN2CC3CCCN4CCCC(C2CCCc2nnc(N(C)C)s2)C34)cc1 (stereo not shown) [Compound 6n, 12-N-p-Methylbenzyl-3′-(N,N-dimethyl-5-amino-1,3,4-thiadiazol-2-yl)-matrinic propane hydrochloride]",> 320 µM,39.7%,78.4%,47.6%,87.6%,104%,did not affect the Smad level,repressed the phosphorylation level of Smad2 significantly,,over 500 mg·kg^−1,49.8%
239 to 240 °C,"Cc1ccc(S(=O)(=O)N2CC3CCCN4CCCC(C34)C2CCCC(=O)O)cc1 (stereo not shown) [Compound 1, 12-N-p-Methylbenzenesulfonyl matrinic acid]",> 320 µM,18.5%,41.9%,16.2%,69.7%,28.9%,,,,,
